From patent EP4813980A1, “EP300/CBP REGULATOR, AND PREPARATION METHOD THEREFOR AND USE THEREOF” (Miracure Biotechnology Limited, priority 2023, dated 2025) come the findings set out here.

Common to all, as to experiment: Cell growth inhibition, CellTiter-Glo, 72 h
Common to all, as to type: cell-based

One assay concerns 22RV1 cells. To be noted: Homo sapiens, 72 h culture, mean of N=2. The method, then:
(§1) 22RV1, vCap, MM1S and OPM-2 cells were cultured in RPMI-1640 medium (10% fetal bovine serum and 100 units of penicillin/streptomycin dual-antibody per mL were added to RPMI-1640) in a cell incubator at 37°C with 5% CO2, respectively. Cells in logarithmic growth phase were seeded into 96-well cell culture plates at 5×10^3 cells/100 µL/well and cultured overnight. Active compounds dissolved in DMSO at different concentrations were added with a final concentration of 0.5% DMSO. 1% Tween 20 was used as positive control and 0.5% DMSO was used as negative control. After 72 h of culture, an equal volume of CellTiter-Glo was added to each well, mixed by shaking for 2 min, and left standing at room temperature for 10 min. […] signal values were read with a microplate reader. Data were analyzed and graphs were generated using Prism 7.0. The values shown are mean ± SEM (N=2). […] The formula for inhibition rate is as follows: % Inhibition = (Icompound−IZPE)/(IHPE−IZPE) × 100 [formula]
(§2) The X-axis is compound concentration (nM), and the Y-axis is % Inhibition.

For a further assay, the system named is MM1S cells. To be noted: Homo sapiens, MM1.S, 72 h culture, mean of N=2. The method, then:
as §1, §2

In the next assay the test system is vCap cells. The note with it: Homo sapiens, 72 h culture, mean of N=2. The method, then:
as §1, §2

`CC(=O)N1Cc2cc(C3CCN(CCN4CCN(c5ccc6c(c5)CN(C5CCC(=O)NC5=O)C6=O)CC4)CC3)cc(N3CCCc4cc(-c5cnn(C)c5)c(C(F)F)cc43)c2C1` (centres unmarked) [Compound 2070]: the figures for the IC50 in the assay with 22RV1 cells and with MM1S cells were 0.42 nM and 0.34 nM, respectively.
For `CNC(=O)N1CCc2cc(C3CCN(CC4CCN(CCOc5cccc6c5CN(C5CCC(=O)NC5=O)C6=O)CC4)CC3)cc(N3CCCc4cc(-c5cnn(C)c5)c(C(F)F)cc43)c2C1` (centres unmarked) [Compound 2065], in that order: 0.41 nM and 0.28 nM.
For `CC(=O)N1Cc2cc(C3CCOCC3)cc(-c3cccc4cc(-c5ccc(C(=O)N6CCC(Nc7cccc8c7C(=O)N(C7CCC(=O)NC7=O)C8=O)CC6)nc5)ncc34)c2C1` (centres unmarked) [Compound 2074, 4-((1-(5-(8-(2-acetyl-6-(tetrahydro-2H-pyran-4-yl)isoindolin-4-yl)isoquinolin-3-yl)pyridinecarbonyl)piperidin-4-yl)amino)-2-(2,6-dioxopiperidin-3-yl)isoindoline-1,3-dione], in that order: above 10000 nM and 426 nM.
`CNC(=O)N1CCc2cc(C3CCN(CCc4ccc(COc5cccc6c5CN(C5CCC(=O)NC5=O)C6=O)cc4)CC3)cc(N3CCCc4cc(-c5cnn(C)c5)c(C(F)F)cc43)c2C1` (centres unmarked) [Compound 2066, 8-(7-(difluoromethyl)-6-(1-methyl-1H-pyrazol-4-yl)-3,4-dihydroquinolin-1(2H)-yl)-6-(1-(4-(((2-(2,6-dioxopiperidin-3-yl)-1-oxoisoindolin-4-yl)oxy)methyl)phenylethyl)piperidin-4-yl)-N-methyl-3,4-dihydroisoquinoline-2(1H)-carboxamide]: the values for the IC50 with 22RV1 cells and with MM1S cells were 0.08 nM and 0.23 nM, respectively.
Consider `CC(=O)N1Cc2cc(C3CCC(N4C(=O)C=CC4=O)CC3)cc(N3CCCc4cc(-c5cnn(C)c5)c(C(F)F)cc43)c2C1` (centres unmarked) [Compound 1385, 1-(4-{2-acetyl-7-[7-(difluoromethyl)-6-(1-methylpyrazol-4-yl)-3,4-dihydro-2H-quinolin-1-yl]-1,3-dihydroisoindol-5-yl}cyclohexyl)pyrrole-2,5-dione], for which the figures for the IC50 with 22RV1 cells and in the assay on vCap cells were 358 nM and 144 nM, respectively.
For `CC(=O)N1Cc2cc(C3CCN(C(=O)CCCCCCNc4cccc5c4n(C)c(=O)n5C4CCC(=O)NC4=O)CC3)cc(N3CCCc4cc(-c5cnn(C)c5)c(C(F)F)cc43)c2C1` (centres unmarked) [Compound 2007], in that order: 0.04 nM and 0.01 nM.
Take `CC(=O)N1Cc2cc(C3CCN(CCN4CCC(CNc5ccc6c(c5)CN(C5CCC(=O)NC5=O)C6=O)CC4)CC3)cc(N3CCCc4cc(-c5cnn(C)c5)c(C(F)F)cc43)c2C1` (centres unmarked) [Compound 2063]: the concentration for half-maximal inhibition (IC50) in the assay on 22RV1 cells was found to be 0.33 nM; in the assay with MM1S cells it was 0.28 nM.
Regarding `CC(=O)N1Cc2cc(C3CCN(Cc4ccc(COc5cccc6c5CN(C5CCC(=O)N(COC(=O)CN)C5=O)C6=O)cc4)CC3)cc(N3CCCc4cc(-c5cnn(C)c5)c(C(F)F)cc43)c2C1` (centres unmarked) [Compound 2064, (3-(4-((4-((2-acetyl-7-(7-(difluoromethyl)-6-(1-methyl-1H-pyrazol-4-yl)-3,4-dihydroquinolin-1(2H)-yl)isoindol-5-yl)piperidin-1-yl)methyl)benzyl)oxy)-1-oxoisoindolin-2-yl)-2,6-dioxopiperidin-1-yl)methyl glycinate], the IC50 in the assay on 22RV1 cells is 0.23 nM; in the assay on vCap cells it was 0.35 nM.
With `CC(=O)N1Cc2cc(C3CCN(C(=O)CCCCC#Cc4ccc5c(c4)n(C)c(=O)n5C4CCC(=O)NC4=O)CC3)cc(N3CCCc4cc(-c5cnn(C)c5)c(C(F)F)cc43)c2C1` (centres unmarked) [Compound 2032, 3-{5-[7-(4-{2-acetyl-7-[7-(difluoromethyl)-6-(1-methylpyrazol-4-yl)-3,4-dihydro-2H-quinolin-1-yl]-1,3-dihydroisoindol-5-yl}piperidin-1-yl)-7-oxohept-1-yn-1-yl]-3-methyl-2-oxo-1,3-benzodiazol-1-yl}piperidine-2,6-dione], the IC50 in the assay with 22RV1 cells came out at 0.16 nM; with vCap cells it was 0.11 nM.
For `CNC(=O)N1CCc2cc(C3CCN(C(=O)CCCCCCNc4cccc5c4n(C)c(=O)n5C4CCC(=O)NC4=O)CC3)cc(N3CCCc4cc(-c5cnn(C)c5)c(C(F)F)cc43)c2C1` (centres unmarked) [Compound 2016, 8-[7-(difluoromethyl)-6-(1-methylpyrazol-4-yl)-3,4-dihydro-2H-quinolin-1-yl)-6-[1-[7-[[1-(2,6-dioxo-3-piperidinyl)-3-methyl-2-oxobenzoimidazol-4-yl]amino]heptanoyl]-4-piperidinyl]-N-methyl-3,4-dihydro-1H-isoquinoline-2-carboxamide], in that order: 0.01 nM and below 0.005 nM.
For `CNC(=O)N1CCc2cc(C3CCN(C(=O)CCCCCCCNc4ccc5c(c4)n(C)c(=O)n5C4CCC(=O)NC4=O)CC3)cc(N3CCCc4cc(-c5cnn(C)c5)c(C(F)F)cc43)c2C1` (centres unmarked) [Compound 2013], in that order: 0.01 nM and 0.449 nM.
For `CNC(=O)N1CCc2cc(C3CCN(Cc4ccc(COc5cccc6c5CN(C5CCC(=O)NC5=O)C6=O)cc4)CC3)cc(N3CCCc4cc(-c5cnn(C)c5)c(C(F)F)cc43)c2C1` (centres unmarked) [Compound 2015, 8-(7-(difluoromethyl)-6-(1-methyl-1H-pyrazol-4-yl)-3,4-dihydroquinolin-1(2H)-yl)-6-(1-(4-(((2-(2,6-dioxopiperidin-3-yl)-1-oxoisoindolin-4-yl)oxy)methyl)benzyl)piperidin-4-yl)-N-methyl-3,4-dihydroisoquinoline-2(1H)-carboxamide] the same measures were 0.05 nM and 0.01 nM.
In the case of `CC(=O)N1Cc2cc(C3CCN(CCN4CCC(COc5ccc6c(c5)CN(C5CCC(=O)NC5=O)C6=O)CC4)CC3)cc(N3CCCc4cc(-c5cnn(C)c5)c(C(F)F)cc43)c2C1` (centres unmarked) [Compound 2071], the IC50 was 0.5 nM in the assay on 22RV1 cells and 0.31 nM in the assay on MM1S cells.
For `CC(=O)N1Cc2cc(C3CCN(CCC4CCN(c5ccc6c(c5)CN(C5CCC(=O)NC5=O)C6=O)CC4)CC3)cc(N3CCCc4cc(-c5cnn(C)c5)c(C(F)F)cc43)c2C1` (centres unmarked) [Compound 2069], in that order: 0.38 nM and 0.36 nM.
Consider `CNC(=O)N1CCc2cc(C3CCN(CC4CCN(CCCc5cccc6c5C(=O)N(C5CCC(=O)NC5=O)C6=O)CC4)CC3)cc(N3CCCc4cc(-c5cnn(C)c5)c(C(F)F)cc43)c2C1` (centres unmarked) [Compound 2022], for which the IC50 with 22RV1 cells worked out at 0.3 nM; with vCap cells, 2.12 nM.
For `CC(=O)N1Cc2cc(C3CCN(Cc4ccc(COc5cccc6c5CN(C5CCC(=O)N(CO)C5=O)C6=O)cc4)CC3)cc(N3CCCc4cc(-c5cnn(C)c5)c(C(F)F)cc43)c2C1` (centres unmarked) [Compound 2053], in that order: 1.02 nM and 0.36 nM.
`CC(=O)N1Cc2cc(C3CCN(CCN4CCC(CNc5cccc6c5C(=O)N(C5CCC(=O)NC5=O)C6=O)CC4)CC3)cc(N3CCCc4cc(-c5cnn(C)c5)c(C(F)F)cc43)c2C1` (centres unmarked) [Compound 2019]: the IC50 in the assay on 22RV1 cells was 2.43 nM; with vCap cells, 1.25 nM.
For `CC(=O)N1Cc2cc(C3CCN(CCN4CCOC(CNc5cccc6c5C(=O)N(C5CCC(=O)NC5=O)C6=O)C4)CC3)cc(N3CCCc4cc(-c5cnn(C)c5)c(C(F)F)cc43)c2C1` (centres unmarked) [Compound 2001], in that order: 0.06 nM and 0.154 nM.
For `CC(=O)n1cc2cc(C3CCN(C(=O)CCCCCCOc4ccc5c(c4)n(C)c(=O)n5C4CCC(=O)NC4=O)CC3)cc(N3CCCc4cc(-c5cnn(C)c5)c(C(F)F)cc43)c2c1` (centres unmarked) [Compound 2029, 3-(5-((7-(4-(2-acetyl-7-(7-(difluoromethyl)-6-(1-methyl-1H-pyrazol-4-yl)-3,4-dihydroquinolin-1(2H)-yl)isoindol-5-yl)piperidin-1-yl)-7-oxoheptyl)oxy)-3-methyl-2-oxo-2,3-dihydro-1H-benzo[d]imidazol-1-yl)piperidine-2,6-dione], in that order: 0.04 nM and 0.03 nM.
For the molecule `CC(=O)n1cc2cc(C3CCN(C(=O)CN4CCC(C#Cc5cccc6c5n(C)c(=O)n6C5CCC(=O)NC5=O)CC4)CC3)cc(N3CCCc4cc(-c5cnn(C)c5)c(C(F)F)cc43)c2c1` (centres unmarked) [Compound 2048, 3-(4-((1-(2-(4-(2-acetyl-7-(7-(difluoromethyl)-6-(1-methyl-1H-pyrazol-4-yl)-3,4-dihydroquinolin-1(2H)-yl)isoindol-5-yl)piperidin-1-yl)-2-oxoethyl)piperidin-4-yl)ethynyl)-3-methyl-2-oxo-2,3-dihydro-1H-benzo[d]imidazol-1-yl)piperidine-2,6-dione], the IC50 amounted to 1.84 nM in the assay with 22RV1 cells and 1.85 nM in the assay on vCap cells.
`COC(=O)N1Cc2cc(C3CCN(C(=O)CCOCCOCCOCCOCCNc4ccc5c(c4)C(=O)N(C4CCC(=O)NC4=O)C5=O)CC3)cc(N3CCCc4cc(-c5cnn(C)c5)c(C(F)F)cc43)c2C1` (centres unmarked) [Compound 2024]: the IC50 in the assay on 22RV1 cells is 3850 nM; in the assay on vCap cells it was 4610 nM.
For `CNC(=O)N1CCc2cc(C3CCN(C(=O)CCCCCCNc4ccc5c(c4)n(C)c(=O)n5C4CCC(=O)NC4=O)CC3)cc(N3CCCc4cc(-c5cnn(C)c5)c(C(F)F)cc43)c2C1` (centres unmarked) [Compound 2028, 8-[7-(difluoromethyl)-6-(1-methylpyrazol-4-yl)-3,4-dihydro-2H-quinolin-1-yl]-6-[1-[7-[[1-(2,6-dioxo-3-piperidinyl)-3-methyl-2-oxo-benzimidazol-5-yl]amino]heptanoyl]-4-piperidinyl]-N-methyl-3,4-dihydro-1H-isoquinoline-2-carboxamide] the same measures were 0.1 nM and 0.26 nM.
